Experimental data published in patent US20250115620A1, “BRIDGED TRICYCLIC CARBAMOYLPYRIDONE COMPOUNDS AND USES THEREOF” (Gilead Sciences, Inc., priority 2022, published 2025).
Like-named read-outs stand apart in the source and are kept apart here.

Experiments:
HIV-1 (IIIB) = assay: microbe, parasite or virus in culture; type: cell-based; settings: Human immunodeficiency virus 1, IIIB, MT4, 120 h, read-out: MT4 EC50
pLAI reporter virus = assay: microbe, parasite or virus in culture; type: cell-based, HIV; settings: Human immunodeficiency virus 1, MT4, 72 h
in vitro = settings: human; for CC50 at 5 days: uninfected MT-4 cells
[1] = HIV-1 (IIIB) in MT-4 cells, 5 days incubation, Cell Titer Glo

Row | Compound | EC50 (HIV-1 (IIIB); [1]) | EC50 (pLAI reporter virus; read-out: RLUC 50% HS EC50) | EC50 (pLAI reporter virus; read-out: RLUC CCM EC50) | CC50 at 5 days (in vitro) | EC50 (HIV-1 (IIIB)) | CC50 (in vitro)
1 | COC[C@@H]1CO[C@@]2(CC[C@H](C)N3C[C@H]2n2cc(C(=O)NCc4c(F)cc(F)cc4F)c(=O)c(O)c2C3=O)O1 (single isomer, unassigned) [168 (peak 1)] | 1.1 nM | 2 nM | 0.4 nM | 28900 nM |  | 
2 | COC[C@@H]1CO[C@]2(CC[C@H](C)N3C[C@H]2n2cc(C(=O)NCc4c(F)cc(F)cc4F)c(=O)c(O)c2C3=O)O1 (single isomer, unassigned) [168 (peak 2)] | 2 nM | 16.4 nM | 0.6 nM | 37000 nM |  | 
3 | C[C@H]1CC[C@@]2(OC[C@@H](Cc3ccccc3)O2)[C@H]2CN1C(=O)c1c(O)c(=O)c(C(=O)NCc3c(F)cc(F)cc3F)cn12 (single isomer, unassigned) [169 (peak 1)] | 4.9 nM | 10 nM | 1.4 nM | 39000 nM |  | 
4 | C[C@H]1CC[C@]2(OC[C@@H](Cc3ccccc3)O2)[C@H]2CN1C(=O)c1c(O)c(=O)c(C(=O)NCc3c(F)cc(F)cc3F)cn12 (single isomer, unassigned) [169 (peak 2)] | 4.3 nM | 4 nM | 2 nM | 45100 nM |  | 
5 | CO[C@H]1CS[C@]2(CC[C@H](C)N3C[C@H]2n2cc(C(=O)NCc4c(F)cc(F)cc4F)c(=O)c(O)c2C3=O)O1 (single isomer, unassigned) [170 (peak 1)] | 1.3 nM | 5 nM | 0.3 nM | 42000 nM |  | 
6 | CO[C@@H]1CS[C@]2(CC[C@H](C)N3C[C@H]2n2cc(C(=O)NCc4c(F)cc(F)cc4F)c(=O)c(O)c2C3=O)O1 (single isomer, unassigned) [170 (peak 2)] | 1.7 nM | 2.6 nM | 0.2 nM | 42600 nM |  | 
7 | CO[C@H]1CS[C@@]2(CC[C@H](C)N3C[C@H]2n2cc(C(=O)NCc4c(F)cc(F)cc4F)c(=O)c(O)c2C3=O)O1 (single isomer, unassigned) [170 (peak 3)] | 1.2 nM | 43.4 nM | 0.3 nM | 8240 nM |  | 
8 | CO[C@@H]1CS[C@@]2(CC[C@H](C)N3C[C@H]2n2cc(C(=O)NCc4c(F)cc(F)cc4F)c(=O)c(O)c2C3=O)O1 (single isomer, unassigned) [170 (peak 4)] | 1.7 nM | 14.5 nM | 0.3 nM | 33100 nM |  | 
9 | CC1=NO[C@@]2(CC[C@H](C)N3C[C@H]2n2cc(C(=O)NCc4ccc(F)cc4F)c(=O)c(O)c2C3=O)[C@H]1F (single isomer, unassigned) [Example 27 (peak 1)] | 1.3 nM | 175 nM | 0.2 nM | 33100 nM |  | 
10 | COCC1=NO[C@@]2(CC[C@H](C)N3C[C@H]2n2cc(C(=O)NCc4ccc(F)cc4F)c(=O)c(O)c2C3=O)C1 [Example 22, (3′S,5S,7′R)—N-(2,4-difluorobenzyl)-12′-hydroxy-3-(methoxymethyl)-3′-methyl-1′,11′-dioxo-1′,4′,5′,11′-tetrahydro-3′H,4H,7′H-spiro[isoxazole-5,6′-[2,7]methanopyrido[1,2-a][1,4]diazonine]-10′-carboxamide] | 1.3 nM |  |  | 23700 nM |  | 
11 | C[C@H]1CC[C@]2(CNC(=O)C2)[C@H]2CN1C(=O)c1c(O)c(=O)c(C(=O)NCc3c(F)cc(F)cc3F)cn12 [Example 58, (3S,3′S,7′S)-12′-hydroxy-3′-methyl-1′,5,11′-trioxo-N-(2,4,6-trifluorobenzyl)-1′,4′,5′,11′-tetrahydro-3′H,7′H-spiro[pyrrolidine-3,6′-[2,7]methanopyrido[1,2-a][1,4]diazonine]-10′-carboxamide] | 77.4 nM |  |  | ≥ 50000 nM |  | 
12 | C[C@H]1CC[C@@]2(CNC(=O)O2)[C@H]2CN1C(=O)c1c(O)c(=O)c(C(=O)NCc3c(F)cc(F)cc3F)cn12 [Example 59, (3′S,5R,7′R)-12′-hydroxy-3′-methyl-1′,2,11′-trioxo-N-(2,4,6-trifluorobenzyl)-1′,4′,5′,11′-tetrahydro-3′H,7′H-spiro[oxazolidine-5,6′-[2,7]methanopyrido[1,2-a][1,4]diazonine]-10′-carboxamide] | 51.4 nM |  |  | ≥ 50000 nM |  | 
13 | CC1=NOC2(CC[C@H](C)N3C[C@H]2n2cc(C(=O)NCc4ccc(F)cc4F)c(=O)c(O)c2C3=O)N1N(C)C (stereo partly drawn) [Example 95, (3′S,7′R)—N-(2,4-difluorobenzyl)-4-(dimethylamino)-12′-hydroxy-3,3′-dimethyl-1′,11′-dioxo-1′,4′,5′,11′-tetrahydro-3′H,4H,7′H-spiro[[1,2,4]oxadiazole-5,6′-[2,7]methanopyrido[1,2-a][1,4]diazonine]-10′-carboxamide] |  |  |  |  | 0.6 nM | 24100 nM
14 | C[C@H]1OC[C@]2(CC[C@H](C)N3C[C@H]2n2cc(C(=O)NCc4c(F)cc(F)cc4F)c(=O)c(O)c2C3=O)O1 [Example 132, (2S,3′S,4R,7′R)-12′-hydroxy-2,3′-dimethyl-1′,11′-dioxo-N-(2,4,6-trifluorobenzyl)-1′,4′,5′,11′-tetrahydro-3′H,7′H-spiro[[1,3]dioxolane-4,6′-[2,7]methanopyrido[1,2-a][1,4]diazonine]-10′-carboxamide] | 1.4 nM |  |  | 30300 nM |  | 
15 | CC1=NO[C@@]2(CC[C@H](C)N3C[C@H]2n2cc(C(=O)NCc4c(F)cc(F)cc4F)c(=O)c(O)c2C3=O)S1 [Example 146, (3′S,5S,7′R)-12′-hydroxy-3,3′-dimethyl-1′,11′-dioxo-N-(2,4,6-trifluorobenzyl)-1′,4′,5′,11′-tetrahydro-3′H,7′H-spiro[[1,4,2]oxathiazole-5,6′-[2,7]methanopyrido[1,2-a][1,4]diazonine]-10′-carboxamide] |  |  |  |  | 1.3 nM | 16900 nM
16 | CC1=NO[C@@]2(CC[C@H](C)N3C[C@H]2n2cc(C(=O)NCc4ncc(F)c(Cl)c4F)c(=O)c(O)c2C3=O)C1 [Example 150, (3′S,5S,7′R)—N-((4-chloro-3,5-difluoropyridin-2-yl)methyl)-12′-hydroxy-3,3′-dimethyl-1′,11′-dioxo-1′,4′,5′,11′-tetrahydro-3′H,4H,7′H-spiro[isoxazole-5,6′-[2,7]methanopyrido[1,2-a][1,4]diazonine]-10′-carboxamide] |  |  |  | 27000 nM | 2.1 nM | 
17 | CC1=NO[C@@]2(CC[C@H](C)N3C[C@H]2n2cc(-c4nnc(Cc5c(F)cc(F)cc5F)s4)c(=O)c(O)c2C3=O)C1 [Example 152, (3′S,5S,7′R)-12′-hydroxy-3,3′-dimethyl-10′-(5-(2,4,6-trifluorobenzyl)-1,3,4-thiadiazol-2-yl)-4′,5′-dihydro-3′H,4H,7′H-spiro[isoxazole-5,6′-[2,7]methanopyrido[1,2-a][1,4]diazonine]-1′,11′-dione] |  |  |  | 14200 nM | 4.2 nM | 
18 | CCn1c(CN2O[C@@]3(CC[C@H](C)N4C[C@H]3n3cc(C(=O)NCc5c(F)cc(F)cc5F)c(=O)c(O)c3C4=O)CC2=O)nc2ccccc21 [Example 164, (3′S,5S,7′R)-2-((1-ethyl-1H-benzo[d]imidazol-2-yl)methyl)-12′-hydroxy-3′-methyl-1′,3,11′-trioxo-N-(2,4,6-trifluorobenzyl)-1′,4′,5′,11′-tetrahydro-3′H,7′H-spiro[isoxazolidine-5,6′-[2,7]methanopyrido[1,2-a][1,4]diazonine]-10′-carboxamide] | 3 nM |  |  | 45700 nM |  | 
